In the NIST ThermoML archive (doi:10.1021/je300799f):
Numbers after ± are expanded uncertainties.

Assays:
[1] = Liquid; for mass density: 101.3 kPa, Vibrating tube method; for vapor or sublimation pressure: Ebulliometric method (Recirculating still)
[2] = refractive index (Na D-line) (dimensionless); conditions: 298.15 K; 101.33 kPa; Liquid; Standard Abbe refractometry
[3] = xn = mol fraction of the nth substance listed; conditions: 101 kPa, Liquid, Vibrating tube method, x2 = 0

CCCCCCCCC [nonane]
[1]
Conditions	mass density [kg/m3]	vapor or sublimation pressure [kPa]
288.15 K	721.65 ± 0.24	–
298.15 K	713.85 ± 0.25	–
308.15 K	705.96 ± 0.25	–
318.15 K	698.06 ± 0.25	–
328.15 K	690.17 ± 0.25	–
395.53 K	–	45 ± 0.07
397.25 K	–	47.5 ± 0.07
398.89 K	–	50 ± 0.07
400.5 K	–	52.5 ± 0.07
402.04 K	–	55 ± 0.08
403.51 K	–	57.5 ± 0.08
404.94 K	–	60 ± 0.08
406.33 K	–	62.5 ± 0.08
407.66 K	–	65 ± 0.09
408.95 K	–	67.5 ± 0.09
410.24 K	–	70 ± 0.09
411.45 K	–	72.5 ± 0.09
412.64 K	–	75 ± 0.1
413.81 K	–	77.5 ± 0.1
414.94 K	–	80 ± 0.1
416.07 K	–	82.5 ± 0.1
417.16 K	–	85 ± 0.11
418.22 K	–	87.5 ± 0.11
419.24 K	–	90 ± 0.11
420.25 K	–	92.5 ± 0.11
421.24 K	–	95 ± 0.12
422.22 K	–	97.5 ± 0.12
423.18 K	–	100 ± 0.12
423.87 K	–	101.32 ± 0.12
423.9 K	–	101.32 ± 0.46
425.1 K	–	105 ± 0.13
426.76 K	–	110 ± 0.13
428.48 K	–	115 ± 0.14
430.15 K	–	120 ± 0.14
431.71 K	–	125 ± 0.15
433.28 K	–	130 ± 0.15
434.77 K	–	135 ± 0.16
436.25 K	–	140 ± 0.16
437.64 K	–	145 ± 0.17
439.03 K	–	150 ± 0.17
440.38 K	–	155 ± 0.18
441.68 K	–	160 ± 0.18
442.99 K	–	165 ± 0.19
444.25 K	–	170 ± 0.19
445.46 K	–	175 ± 0.2
446.65 K	–	180 ± 0.2
447.83 K	–	185 ± 0.21
448.99 K	–	190 ± 0.21
450.12 K	–	195 ± 0.22
451.2 K	–	200 ± 0.22
452.29 K	–	205 ± 0.23
453.35 K	–	210 ± 0.23
454.41 K	–	215 ± 0.24
455.44 K	–	220 ± 0.25
456.45 K	–	225 ± 0.25
457.45 K	–	230 ± 0.26
458.43 K	–	235 ± 0.26
459.41 K	–	240 ± 0.27
460.35 K	–	245 ± 0.27
461.28 K	–	250 ± 0.28
462.19 K	–	255 ± 0.28
463.08 K	–	260 ± 0.29
463.95 K	–	265 ± 0.29
464.86 K	–	270 ± 0.3
465.73 K	–	275 ± 0.3
466.59 K	–	280 ± 0.31

Conditions	refractive index
[2]	1.4032 ± 0.0005

CCCCCCC [heptane]
[1]
Conditions	mass density [kg/m3]	vapor or sublimation pressure [kPa]
288.15 K	688.16 ± 0.25	–
298.15 K	679.62 ± 0.25	–
308.15 K	670.96 ± 0.25	–
318.15 K	662.33 ± 0.25	–
328.15 K	653.61 ± 0.25	–
346.23 K	–	45 ± 0.07
347.76 K	–	47.5 ± 0.07
349.29 K	–	50 ± 0.07
350.7 K	–	52.5 ± 0.08
352.07 K	–	55 ± 0.08
353.41 K	–	57.5 ± 0.08
354.69 K	–	60 ± 0.08
355.94 K	–	62.5 ± 0.09
357.14 K	–	65 ± 0.09
358.32 K	–	67.5 ± 0.09
359.45 K	–	70 ± 0.09
360.54 K	–	72.5 ± 0.1
361.61 K	–	75 ± 0.1
362.66 K	–	77.5 ± 0.1
363.68 K	–	80 ± 0.1
364.71 K	–	82.5 ± 0.11
365.65 K	–	85 ± 0.11
366.61 K	–	87.5 ± 0.11
367.53 K	–	90 ± 0.11
368.42 K	–	92.5 ± 0.12
369.32 K	–	95 ± 0.12
370.19 K	–	97.5 ± 0.12
371.07 K	–	100 ± 0.12
371.38 K	–	101.32 ± 0.46
371.51 K	–	101.32 ± 0.13
372.72 K	–	105 ± 0.13
374.31 K	–	110 ± 0.13
375.85 K	–	115 ± 0.14
377.34 K	–	120 ± 0.14
378.77 K	–	125 ± 0.15
380.18 K	–	130 ± 0.16
381.52 K	–	135 ± 0.16
382.84 K	–	140 ± 0.17
384.13 K	–	145 ± 0.17
385.36 K	–	150 ± 0.18
386.6 K	–	155 ± 0.18
387.78 K	–	160 ± 0.19
388.94 K	–	165 ± 0.19
390.08 K	–	170 ± 0.2
391.17 K	–	175 ± 0.2
392.25 K	–	180 ± 0.21
393.3 K	–	185 ± 0.21
394.34 K	–	190 ± 0.22
395.37 K	–	195 ± 0.22
396.37 K	–	200 ± 0.23
397.35 K	–	205 ± 0.23
398.29 K	–	210 ± 0.24
399.24 K	–	215 ± 0.24
400.17 K	–	220 ± 0.25
401.07 K	–	225 ± 0.26
401.97 K	–	230 ± 0.26
402.84 K	–	235 ± 0.27
403.72 K	–	240 ± 0.27
404.57 K	–	245 ± 0.28
405.42 K	–	250 ± 0.28
406.25 K	–	255 ± 0.29
407.05 K	–	260 ± 0.29
407.87 K	–	265 ± 0.3
408.65 K	–	270 ± 0.3
409.42 K	–	275 ± 0.31
410.22 K	–	280 ± 0.31

Conditions	refractive index
[2]	1.3853 ± 0.0005

CCCCCCCCC [nonane] + CCCC(=O)OCC
[3]
Conditions	mass density [kg/m3]
288.15 K	721.65 ± 0.24
298.15 K	713.85 ± 0.25
308.15 K	705.96 ± 0.25
318.15 K	698.06 ± 0.25
328.15 K	690.17 ± 0.25

CCCCCCC [heptane] + CCCC(=O)OC
[3]
Conditions	mass density [kg/m3]
288.15 K	688.16 ± 0.25
298.15 K	679.62 ± 0.25
308.15 K	670.96 ± 0.25
318.15 K	662.33 ± 0.25
328.15 K	653.61 ± 0.25

CCCCCCCCC [nonane] + CCCC(=O)OC
[3]
Conditions	mass density [kg/m3]
288.15 K	721.65 ± 0.24
298.15 K	713.85 ± 0.25
308.15 K	705.96 ± 0.25
318.15 K	698.06 ± 0.25
328.15 K	690.17 ± 0.25
